Data reported in US8673908B2, “Kynurenine production inhibitor” (Kyowa Hakko Kirin Co., Ltd., priority 2008, dated 2014).

system: kynurenine production in IFN-γ-treated KATO-III cells; experiment: Inhibitory activity on kynurenine production (Test Example 1); format: cell-based; details: Homo sapiens, IFN-γ treatment, culture for 96 hours, read-out: IC50 value, inhibition of kynurenine production
Description: This assay was performed according to a method modified from the method described in the Journal of Biological Chemistry (J. Biol. Chem.), vol. 263, pp. 2041-2048 (1988). Culture of KATO-III derived from human gastric cancer cells was performed by use of RPMI 1640 (GIBCO, 11875) supplemented with 10 vol % FBS (GIBCO, 10091-148, lot. 665285). 1 μL of a DMSO solution of the test substance was diluted with 199 μL of the culture medium, and the diluted solution was added to wells of a 384 well plate (10 μL/well). Then, IFN-γ (Sigma, 1-3265) was added to the culture medium so that the concentration of IFN-γ was 31.25 ng/mL, and the KATO-III cells were suspended at 50,000 cells/ml, in the culture medium. 40 μL of the suspension was added to each well (2,000 cells/well), and culture of the KATO-III cells was performed at 37° C. under a 5% CO2 atmosphere for 96 hours. The final concentration of DMSO was limited to 0.1 vol % or less so that DMSO itself might not affect the kynurenine concentration measured by this assay. After the culture, 10 μL of a 30 w/v % aqueous trichloroacetic acid solution was added to each well, and incubation was performed at 65° C. for 30 minutes. The plate was centrifuged at 2,500×g for 5 minutes, and then 15 μL of the supernatant in each well was transferred into another 384 well plate. To each of the transferred supernatants, 15 μL of a 2 w/v % solution of p-dimethylaminobenzaldehyde in acetic acid was added, incubation was performed at 65° C. for 20 minutes, and then the absorbance at 480 nm was measured.
[formula] Sample: the absorbance value of the well to which a DMSO solution containing the test substance was added and in which cells were treated with IFN-γ. Blank: the absorbance value of the well to which only DMSO, not the test substance was added and in which cells were treated with IFN-γ. Control: the absorbance value of the well to which only DMSO, not the test substance was added and in which cells were not treated with IFN-γ.
In this assay, expression of IDO in KATO-III cells is induced by IFN-γ treatment and then kynurenine in the culture medium is quantified. It is known that the kynurenine concentration in a culture medium increases in proportion to the enzymatic activity of intracellular IDO (for example, the Journal of Biological Chemistry (J. Biol. Chem.), vol. 263, pp. 2041-2048 (1988)). […] It is known that kynurenine production is inhibited by IDO inhibitors (for example, the Journal of Clinical Investigation (J. Clin. Invest.), vol. 117, No. 5, pp. 1147-1154 […]), and thus it is expected that Compound (I) also has an inhibitory effect on IDO.

Structure (SMILES) | IC50
O=S(=O)(Nc1nc2ccccc2nc1OC(c1cccnc1)C(F)(F)C(F)(F)F)c1cccc(Cl)c1Cl (centres unmarked) [Compound 46, 2,3-dichloro-N-{3-[3,3,3,2,2-pentafluoro-1-(pyridin-3-yl)-propoxy]quinoxalin-2-yl}benzenesulfonamide] | < 1000 nM
O=S(=O)(Nc1nc2ccccc2nc1OC(c1ccncc1)C(F)(F)F)c1ccccc1Cl (centres unmarked) [Compound 49, 2-chloro-N-{3-[2,2,2-trifluoro-1-(pyridin-4-yl)ethoxy]quinoxalin-2-yl}benzenesulfonamide] | < 1000 nM
N#Cc1ccc(C(Oc2nc3ccccc3nc2NS(=O)(=O)c2ccccc2Cl)C(F)(F)F)cn1 (centres unmarked) [Compound 54, 2-chloro-N-{3-[2,2,2-trifluoro-1-(6-cyanopyridin-3-yl)-ethoxy]quinoxalin-2-yl}benzenesulfonamide] | < 1000 nM
COCOc1ccc(C(Oc2nc3ccccc3nc2NS(=O)(=O)c2ccccc2Cl)C(F)(F)F)cc1 (centres unmarked) [Compound 56, 2-chloro-N-{3-[2,2,2-trifluoro-1-(4-methoxymethoxyphenyl)-ethoxy]quinoxalin-2-yl}benzenesulfonamide] | < 1000 nM
O=Cc1ccc(C(Oc2nc3ccccc3nc2NS(=O)(=O)c2ccccc2Cl)C(F)(F)F)cc1 (centres unmarked) [Compound 58, 2-chloro-N-{3-[2,2,2-trifluoro-1-(4-formylphenyl)ethoxy]-quinoxalin-2-yl}benzenesulfonamide] | < 1000 nM
O=S(=O)(Nc1nc2ccccc2nc1OC(c1ccc(CO)cc1)C(F)(F)F)c1ccccc1Cl (centres unmarked) [Compound 60, 2-chloro-N-{3-[2,2,2-trifluoro-1-(4-hydroxymethylphenyl)-ethoxy]quinoxalin-2-yl}benzenesulfonamide] | < 1000 nM
COc1ccc(C(Oc2nc3ccccc3nc2NS(=O)(=O)c2ccccc2Cl)C(F)(F)F)cn1 (centres unmarked) [Compound 64, 2-chloro-N-{3-[2,2,2-trifluoro-1-(6-methoxypyridin-3-yl)-ethoxy]quinoxalin-2-yl}benzenesulfonamide] | < 1000 nM

Results, then the compound that gave them:

IC50 | Structure (SMILES)
< 1000 nM | O=S(=O)(Nc1nc2ccccc2nc1OC(c1ccccn1)C(F)(F)F)c1ccccc1Cl (centres unmarked) [Compound 48, 2-chloro-N-{3-[2,2,2-trifluoro-1-(pyridin-2-yl)ethoxy]-quinoxalin-2-yl}benzenesulfonamide]
< 1000 nM | O=S(=O)(Nc1nc2ccccc2nc1OC(c1ccc(Cl)cc1)C(F)(F)F)c1ccccc1Cl (centres unmarked) [Compound 53, 2-chloro-N-{3-[2,2,2-trifluoro-1-(4-chlorophenyl)ethoxy]-quinoxalin-2-yl}benzenesulfonamide]
< 1000 nM | O=S(=O)(Nc1nc2ccccc2nc1OC(c1ccc(F)cc1)C(F)(F)F)c1ccccc1Cl (centres unmarked) [Compound 59, 2-chloro-N-{3-[2,2,2-trifluoro-1-(4-fluorophenyl)ethoxy]-quinoxalin-2-yl}benzenesulfonamide]
< 1000 nM | CN(C)Cc1ccc(C(Oc2nc3ccccc3nc2NS(=O)(=O)c2ccccc2Cl)C(F)(F)F)cc1 (centres unmarked) [Compound 62, 2-chloro-N-{3-[2,2,2-trifluoro-1-(4-dimethylaminomethyl-phenyl)ethoxy]quinoxalin-2-yl}benzenesulfonamide]
< 1000 nM | CN(C)C(=O)c1ccc(C(Oc2nc3ccccc3nc2NS(=O)(=O)c2ccccc2Cl)C(F)(F)F)cc1 (centres unmarked) [Compound 63, 2-chloro-N-{3-[2,2,2-trifluoro-1-(4-dimethylcarbamoyl-phenyl)ethoxy]quinoxalin-2-yl}benzenesulfonamide]
< 1000 nM | CC(C)(C#N)C(Oc1nc2ccccc2nc1NS(=O)(=O)c1ccccc1Cl)c1cccnc1 (centres unmarked) [Compound 67, 2-chloro-N-{3-[2-cyano-2-methyl-1-(pyridin-3-yl)propoxy]-quinoxalin-2-yl}benzenesulfonamide]
< 1000 nM | Cc1ccc(C(Oc2nc3ccccc3nc2NS(=O)(=O)c2c(C)nn(C)c2Cl)C(F)(F)F)cn1 (centres unmarked) [Compound 69, 5-chloro-1,3-dimethyl-N-{3-[2,2,2-trifluoro-1-(6-methylpyridin-3-yl)ethoxy]quinoxalin-2-yl}-1H-pyrazole-4-sulfonamide]
